# Experimental data reported in patent US12440443B2, “Nano-emulsion of CBFβ-RUNX1 inhibitor for ocular drug deliver” (Massachusetts Eye and Ear Infirmary, priority 2017, dated 2025).
# Test: Solubility behaviour of Ro5-3335 in aqueous solution
# Assay type: physicochemical
# Source text: The invention provides a solution to many problems and/or drawbacks of earlier ocular formulations and features a nano-emulsion composition, e.g., a nano-emulsion comprising a core binding factor β (CBFβ)-Runt-Related Transcription Factor 1 (RUNX1) (CBFβ-RUNX1) inhibitor. […] With our emulsion, we have devised a composition to encapsulate the drug in a nanonsphere, which allows for suspension in an aqueous solution, and increases availability of the drug, and also improves penetration of ocular tissues.
compound,measurement,value
"O=C1CN=C(c2ccc[nH]2)c2cc(Cl)ccc2N1 [Ro5-3335, 7-chloro-1,3-dihydro-5-(1h-pyrrol-2y-yl)-2H-1,4-benzodiazepin-2-one]",solubility in aqueous solution,insoluble in aqueous solution
